# From ChEMBL document CHEMBL2163248, “Classification of inhibitors of hepatic organic anion transporting polypeptides (OATPs): influence of protein expression on drug-drug interactions” (J Med Chem, 2012)
# Experiments:
# [1] = molecular target: T1, Solute carrier organic anion transporter family member 2B1 (Homo sapiens, UniProt O94956); test: Inhibition of human liver OATP2B1 expressed in HEK293 Flp-In cells assessed as reduction in [3H]E3S uptake at 20 uM incubated for 5 mins by scintillation counting; settings: hek293, 5 min
# T1 sequence (O94956 whole entry): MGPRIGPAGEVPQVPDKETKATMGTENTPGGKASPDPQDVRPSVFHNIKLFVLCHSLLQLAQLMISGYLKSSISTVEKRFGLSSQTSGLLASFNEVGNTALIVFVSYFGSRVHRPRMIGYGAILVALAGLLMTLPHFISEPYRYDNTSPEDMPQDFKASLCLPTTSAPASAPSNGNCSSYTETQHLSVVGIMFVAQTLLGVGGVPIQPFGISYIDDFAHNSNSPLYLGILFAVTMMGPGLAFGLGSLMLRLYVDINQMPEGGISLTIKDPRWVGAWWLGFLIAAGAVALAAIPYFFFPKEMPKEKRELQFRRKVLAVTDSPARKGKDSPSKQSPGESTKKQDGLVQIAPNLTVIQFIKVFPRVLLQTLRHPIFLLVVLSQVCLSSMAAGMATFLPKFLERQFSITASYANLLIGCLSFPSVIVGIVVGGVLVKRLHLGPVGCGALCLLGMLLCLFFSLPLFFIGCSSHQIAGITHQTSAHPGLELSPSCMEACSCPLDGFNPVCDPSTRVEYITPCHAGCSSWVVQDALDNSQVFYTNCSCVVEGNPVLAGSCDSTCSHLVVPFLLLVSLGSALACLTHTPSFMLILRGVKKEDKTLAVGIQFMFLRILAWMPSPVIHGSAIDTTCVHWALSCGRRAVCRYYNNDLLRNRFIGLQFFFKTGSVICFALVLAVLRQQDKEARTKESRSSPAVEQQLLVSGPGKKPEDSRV
# [2] = molecular target: T2, Solute carrier organic anion transporter family member 1B1 (Homo sapiens, UniProt Q9Y6L6); test: Inhibition of human liver OATP1B1 expressed in HEK293 Flp-In cells assessed as reduction in E17-betaG uptake at 20 uM by scintillation counting; settings: hek293, 20 µM
# T2 sequence (Q9Y6L6 whole entry): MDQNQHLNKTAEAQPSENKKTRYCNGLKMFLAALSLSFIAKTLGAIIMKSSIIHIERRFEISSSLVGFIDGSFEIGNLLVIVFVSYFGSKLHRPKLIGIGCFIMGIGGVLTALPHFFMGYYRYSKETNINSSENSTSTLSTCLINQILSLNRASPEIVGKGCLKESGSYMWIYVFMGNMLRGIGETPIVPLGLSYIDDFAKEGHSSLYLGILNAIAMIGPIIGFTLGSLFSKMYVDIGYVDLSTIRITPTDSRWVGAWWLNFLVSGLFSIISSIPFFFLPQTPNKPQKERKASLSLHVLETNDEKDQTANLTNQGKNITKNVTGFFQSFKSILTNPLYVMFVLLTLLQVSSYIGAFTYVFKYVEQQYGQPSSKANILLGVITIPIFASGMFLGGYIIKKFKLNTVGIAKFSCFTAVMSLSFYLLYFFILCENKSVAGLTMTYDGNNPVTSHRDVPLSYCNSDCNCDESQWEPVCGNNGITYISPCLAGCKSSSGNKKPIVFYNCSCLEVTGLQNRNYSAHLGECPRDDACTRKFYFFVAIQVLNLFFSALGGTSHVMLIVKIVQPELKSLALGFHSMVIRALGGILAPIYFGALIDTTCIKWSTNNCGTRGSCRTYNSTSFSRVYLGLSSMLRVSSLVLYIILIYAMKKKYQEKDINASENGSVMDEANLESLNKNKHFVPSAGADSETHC
# [3] = molecular target: T3, Solute carrier organic anion transporter family member 1B3 (Homo sapiens, UniProt Q9NPD5); test: Inhibition of human liver OATP1B3 expressed in HEK293 Flp-In cells assessed as reduction in [3H]E17-betaG uptake at 20 uM incubated for 5 mins by scintillation counting; settings: hek293, 5 min
# T3 sequence (Q9NPD5 whole entry): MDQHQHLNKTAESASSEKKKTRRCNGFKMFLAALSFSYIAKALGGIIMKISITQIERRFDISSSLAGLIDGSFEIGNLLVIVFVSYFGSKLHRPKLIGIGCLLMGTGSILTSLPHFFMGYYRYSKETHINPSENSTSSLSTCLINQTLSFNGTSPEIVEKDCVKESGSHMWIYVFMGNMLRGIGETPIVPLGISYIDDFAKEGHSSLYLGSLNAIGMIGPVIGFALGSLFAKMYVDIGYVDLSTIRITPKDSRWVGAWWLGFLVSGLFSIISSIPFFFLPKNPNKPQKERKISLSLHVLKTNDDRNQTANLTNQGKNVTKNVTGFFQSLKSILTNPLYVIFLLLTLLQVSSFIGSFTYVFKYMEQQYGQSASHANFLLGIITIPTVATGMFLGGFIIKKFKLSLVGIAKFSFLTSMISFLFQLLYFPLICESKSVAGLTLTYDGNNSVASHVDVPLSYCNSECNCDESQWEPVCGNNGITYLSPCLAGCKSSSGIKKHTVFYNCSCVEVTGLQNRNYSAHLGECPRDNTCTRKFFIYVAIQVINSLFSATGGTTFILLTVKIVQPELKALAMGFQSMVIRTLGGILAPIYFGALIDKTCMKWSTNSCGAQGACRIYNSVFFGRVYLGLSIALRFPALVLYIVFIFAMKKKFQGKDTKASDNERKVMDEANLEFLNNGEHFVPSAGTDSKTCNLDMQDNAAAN
SMILES,INH [1] [%],INH [2] [%],INH [3] [%]
COC(=O)N[C@H](C(=O)N[C@@H](Cc1ccccc1)[C@@H](O)CN(Cc1ccc(-c2ccccn2)cc1)NC(=O)[C@@H](NC(=O)OC)C(C)(C)C)C(C)(C)C [ATAZANAVIR],90.1,95,92.6
CNCC[C@@H](Oc1ccccc1C)c1ccccc1 [ATOMOXETINE],16.3,-7.5,31.6
O=C(O)[C@H]1O[C@@H](Oc2cc3oc(-c4ccccc4)cc(=O)c3c(O)c2O)[C@H](O)[C@@H](O)[C@@H]1O [BAICALIN],59.1,27.6,20.9
CCc1oc2ccccc2c1C(=O)c1cc(Br)c(O)c(Br)c1 [BENZBROMARONE],76.3,86.6,19.5
COc1ccc2cc3[n+](cc2c1OC)CCc1cc2c(cc1-3)OCO2 [BERBERINE],18.5,32,19.4
CCCC1O[C@@H]2C[C@H]3[C@@H]4CCC5=CC(=O)C=C[C@]5(C)[C@H]4[C@@H](O)C[C@]3(C)[C@]2(C(=O)CO)O1 (stereo partly drawn) [BUDESONIDE],30.3,73.2,79
CCc1cccc2cc(C(O)CNC(C)(C)C)oc12 (stereo not drawn) [BUFURALOL],-7,-13.9,23.8
CC(NC(C)(C)C)C(=O)c1cccc(Cl)c1 (stereo not drawn) [BUPROPION],17,8.5,7.2
O=C1CC2(CCCC2)CC(=O)N1CCCCN1CCN(c2ncccn2)CC1 [BUSPIRONE],-13.9,33.3,-5.6
Cn1c(=O)c2c(ncn2C)n(C)c1=O [CAFFEINE],3.2,-1.8,22.1
C[C@H](CS)C(=O)N1CCC[C@H]1C(=O)O [CAPTOPRIL],39.1,18.6,4
NC(=O)N1c2ccccc2C=Cc2ccccc21 [CARBAMAZEPINE],17.3,13.3,23.2
C[N+](C)(C)CC(O)CC(=O)[O-] (stereo not drawn) [CARNITINE],15.5,36.6,-9.3
CC1=C(C(=O)O)N2C(=O)[C@@H](NC(=O)[C@H](N)c3ccc(O)cc3)[C@H]2SC1 [CEFADROXIL],3.5,9.4,21
Cn1nnnc1SCC1=C(C(=O)O)N2C(=O)[C@@H](NC(=O)[C@H](O)c3ccccc3)[C@H]2SC1 [CEFAMANDOLE],2.7,30.2,16.5
COCc1c(C(C)C)nc(C(C)C)c(/C=C/[C@@H](O)C[C@@H](O)CC(=O)O)c1-c1ccc(F)cc1 [CERIVASTATIN],40.1,73.6,68.1
CN(C)CCCN1c2ccccc2Sc2ccc(Cl)cc21 [CHLORPROMAZINE],4.3,27.1,22.8
CN(C)CC/C=C1/c2ccccc2Sc2ccc(Cl)cc21 [CHLORPROTHIXENE],26.6,24,-6.9

SMILES,INH [1] [%],INH [2] [%],INH [3] [%]
C[C@H](CCC(=O)O)[C@H]1CC[C@H]2[C@@H]3[C@H](O)C[C@@H]4C[C@H](O)CC[C@]4(C)[C@H]3C[C@H](O)[C@]12C [CHOLIC ACID],20.2,41.6,40.8
CN/C(=N/CCSCc1nc[nH]c1C)NC#N [CIMETIDINE],-6.2,40.3,24.8
Clc1ccccc1C(c1ccccc1)(c1ccccc1)n1ccnc1 [CLOTRIMAZOLE],-37.1,32.3,-120.4
COc1cc2c(c(OC)c1OC)-c1ccc(OC)c(=O)cc1[C@@H](NC(C)=O)CC2 [COLCHICINE],24.4,45.2,-3.9
O=c1ccc2ccccc2o1 [COUMARIN],9.3,7.6,38.2
O=c1oc2cc(O)ccc2c2oc3cc(O)ccc3c12 [COUMESTROL],-41.5,73.2,-21.1
O=c1c(-c2ccc(O)cc2)coc2cc(O)ccc12 [DAIDZEIN],32,35,0.7
C[C@@H]1C[C@H]2[C@@H]3CCC4=CC(=O)C=C[C@]4(C)[C@@]3(F)[C@@H](O)C[C@]2(C)[C@@]1(O)C(=O)CO [DEXAMETHASONE],-12.5,10.7,34.2
COc1ccc2c(c1)[C@]13CCCC[C@@H]1[C@H](C2)N(C)CC3 [DEXTROMETHORPHAN],15.9,36.3,-21.9
CC/C(=C(/CC)c1ccc(O)cc1)c1ccc(O)cc1 [DIETHYLSTILBESTROL],68.1,62.1,31.1
COc1ccc([C@@H]2Sc3ccccc3N(CCN(C)C)C(=O)[C@@H]2OC(C)=O)cc1 [DILTIAZEM],-9.1,3.2,4.1
CC(C)N(CCC(C(N)=O)(c1ccccc1)c1ccccn1)C(C)C (stereo not drawn) [DISOPYRAMIDE],18.5,47.5,8.6
COc1cc2nc(N3CCN(C(=O)C4COc5ccccc5O4)CC3)nc(N)c2cc1OC (stereo not drawn) [DOXAZOSIN],45.8,28.8,-17.3
O=C1Nc2ccc(Cl)cc2[C@@](C#CC2CC2)(C(F)(F)F)O1 [EFAVIRENZ],43.2,40.9,18.2
CC[C@H]1OC(=O)[C@H](C)[C@@H](O[C@H]2C[C@@](C)(OC)[C@@H](O)[C@H](C)O2)[C@H](C)[C@@H](O[C@@H]2O[C@H](C)C[C@H](N(C)C)[C@H]2O)[C@](C)(O)C[C@@H](C)C(=O)[C@H](C)[C@@H](O)[C@]1(C)O [ERYTHROMYCIN],-19,58.8,45.8
C[C@]12CC[C@@H]3c4ccc(O)cc4CC[C@H]3[C@@H]1CC[C@@H]2O [ESTRADIOL],47.4,102.8,39.3
C[C@]12CC[C@@H]3c4ccc(OS(=O)(=O)O)cc4CC[C@H]3[C@@H]1CCC2=O [ESTRONE SULFURIC ACID],20.8,98.1,10.1
O=C1[C@H](CC[C@H](O)c2ccc(F)cc2)[C@@H](c2ccc(O)cc2)N1c1ccc(F)cc1 [EZETIMIBE],-8.9,55.5,1.5
